In patent US20250135012A1, “DENDRIMER CONJUGATES OF SMALL MOLECULE BIOLOGICS FOR INTRACELLULAR DELIVERY” (The Johns Hopkins University, priority 2021, published 2025):
Several values for one entry are separate records, joined by “and”; a condition that tells them apart may be missing. Identical values can stand only once. Non-standard residues stand in square brackets, D forms with d. Residues, ends and D or L forms follow the SMILES beside them. Cya = N[C@@H](CS(=O)(=O)O)C(=O)O

Assays:
[1] = test system: VEGF-A; experiment: VEGF-A expression by VEGF stimulated endothelial cells; format: cell-based, human; conditions: co-incubated with VEGF-A
Protocol: (§1) Cells were treated with D-ALG1001 and ALG-1001 for 24 h before activation with VEGF for 5 minutes. […] Cells were lysed with TRIZOL® and processed as previously described for qPCR analysis.
In addition to examining pathway activation, the effects of D-ALG and ALG-1001 were also studied on VEGF-A expression by endothelial cells.

[2] = test system: choroidal neovascularization (CNV); experiment: Laser CNV model, CNV area; format: in vivo, Brown Norway rats
Protocol: Animals were anesthetized through intraperitoneal injections of a ketamine/xylazine cocktail (ketamine 50 mg/kg and xylazine 10 mg/kg). Pupils are dilated with topical 2.5% Phenylephrine Hydrochloride solution followed by 0.5% Tetracaine Hydrochloride solution. To induce CNV formation, four equally spaced lesions will be created in the Bruch's membrane with a built-in laser system on the Micron III SLO. Laser power was set to […] with duration of 70 ms. Gonio ophthalmic solution was applied post-operatively to prevent eyes from drying and forming cataracts.
On the day of CNV induction (Day 0), D-ALG1001 and ALG1001 was administered intraperitoneally at a dose of 150 μg on a peptide basis. […]
After fixation, the posterior segment of the eye was dissected out and the retina separated from the choroid. […] Samples for CNV quantification were imaged with an Axiovert phase contrast microscope. […]
A Micron III SLO scope and laser attachment was used to induce CNV formation in mice. […] Whether dendrimer conjugation impeded the peptide from attenuating CNV was assessed by first injecting ALG-1001 and D-ALG intravitreally after CNV induction. The eyes were then collected on day 7 and CNV area quantified.
The protection and targeting of D-ALG allowed for less invasive administration routes. […] Choroidal flatmount of eyes at day 7 and 14 were imaged and the CNV area was calculated using ImageJ.

[3] = test system: FAK; experiment: Western blot, FAK and phospho-FAK in VEGF stimulated HUVEC; format: cell-based, human
Protocol: as §1
Concentration of protein was determined with the BCA protein assay kit (Thermo Scientific, Rockford, IL). Equal amount of protein was denatured and resolved on 4-15% TGX gels (Bio-Rad, Hercules, CA). Gels were transferred to nitrocellulose membranes, blocked with 3% Bovine Serum Albumin (“BSA”) at RT for 1 h, and probed for GAPDH, FAK, pFAK, MAPK, and pMAPK at 4° C. overnight. Membranes were washed thrice before incubation with HRP-conjugated secondary antibodies followed by incubation with chemiluminescent substrate for visualization.
To elucidate the mechanism through which D-ALG and ALG-1001 influence angiogenic function, cells were pre-treated with D-ALG and ALG-1001 for 24 h. The cells were then stimulated with a high dose of exogenous VEGF for 5 min after which the samples were collected for western blotting. The samples were probed for expression of total FAK, phospho-FAK (Y397), ERK1/2, phospho-ERK1/2, and Cyclophilin B (CycB) with CycB acting as the internal control.

[4] = test system: HUVEC cells; experiment: HUVEC vessel formation assay on Matrigel; format: cell-based, human; conditions: 1 mM
Protocol: 96 well plates were coated with 75 μL of […]® and left at room temperature for 15 minutes before placing into 37° C. incubators for an additional 30 minutes. D-ALG1001 was dissolved at twice the desired concentration and 50 μL of the drug solution was added to the wells. HUVEC cells were then added to each well at a density of 70,000 cells/cm^2. Live-cell images were taken at 12 h for analysis.
To find the effective dose in a physiologically relevant model, an in vitro model of blood vessel formation was utilized. HUVEC cells were treated with a gradient concentration of D-ALG and ALG-1001 for 24 h at three different magnitudes of doses. The cells were then seeded on […]® after which cells naturally migrate to form blood vessel-like tubule structures. The images were analyzed with Angiogenesis Analyzer plug-in on ImageJ to extract relevant metrics that measure the connectivity and integrity of tube networks (FIG. 16).

[5] = test system: IL1β; experiment: IL1β expression in LPS stimulated RAW264.7 cells (qPCR); format: cell-based, murine; conditions: 24 h pretreatment, LPS 3 h
Protocol: RAW264.7 cells were seeded at a density of 1×10^5 cells per well in 12-well plates 48 h before treatment. Cells were incubated with D-ALG1001 and ALG-1001 for 24 h, the treatment media was aspirated then LPS at a concentration of 10,000 Endotoxin Units/mL was added to stimulate inflammatory response. Samples were collected 3 h after LPS stimulation for qPCR analysis.
100 μL of chloroform was added to the Trizol suspension and the aqueous phase was separated with a centrifuge at 10K RPM at 4° C. for 15 minutes. 400 μL of 2-propanol was added to the aqueous solution and spun again to pellet the RNA. The RNA was washed with 70% ethanol solution, pelleted again, and re-suspended in DEPC (ultrapure treated to inactivated enzymes) water.
To convert RNA to complementary DNA, 2 μg of RNA was converted using a High-Capacity cDNA Reverse Transcription Kit (Applied Biosystems, Foster City, CA). Samples were analyzed using STEPONE PLUS® real-time PCR system (Applied Biosystems) with SYBR Green reagent (ThermoFisher Scientific). Relative expression was quantified with ΔΔCt calculations normalized to controls. Primers for GAPDH was obtained from Bio-Rad Laboratories (Hercules, CA). Primers were purchased from Integrated DNA Technologies (Coralville, IA). Primers for TNFα were: […]

C[C@@H](O)[C@H](NC(=O)[C@H](CS(=O)(=O)O)NC(=O)CNC(=O)[C@H](CCCNC(=N)N)NC(=O)CN)C(=O)N1CCC[C@H]1C(=O)O [ALG-1001] (H-GRG[Cya]TP-OH; N-terminus and C-terminus assumed)
VEGF production compared to the control [1]: did not have statistically significant increases | reduction of CNV formation ([2]; day 7, intraperitoneal 150 μg peptide basis every 4 days): ~60% and 40% | formation of CNV ([2]; intravitreal, day 7): significantly inhibited | reduction of phospho-FAK ([3]; 1 mM on a peptide basis, vs VEGF stimulated controls): 20% | total FAK and phospho-FAK expression ([3]; vs untreated VEGF stimulated controls): lower levels of total FAK and phosphor-FAK | tube formation [4]: increased disruption in tube formation | impact on IL1β production [5]: no impact on IL1β production
